The values that follow come from US10968203B2, “Pyrimidinyl-pyridyloxy-naphthyl compounds and methods of treating IRE1-related diseases and disorders” (Genentech, Inc., priority 2017, dated 2021).

Counter-ions that a name gives are not always drawn. Like-named read-outs stand apart in the source and are kept apart here.

This experiment relates to XBP1s-luc 293 LUC. The experiment is described as follows: cellular PD assay, XBP1s-LUC reporter (Example 903). It counts as cell-based. The conditions noted are these: read-out: XBP1s-luc 293 LUC (IC50). Here is the method:
Inhibition of IRE1α RNase activity was determined in an enzyme assay that measured cleavage of the XBP1 stem loop by autophosphorylated IRE1α. This assay format was chosen to ensure that inhibitors of either the IRE1α kinase or the RNase domains would be identified. Binding to the ATP pocket and inhibition of IRE1α kinase activity are not necessarily required to inhibit the RNase activity. Compounds were also profiled in cellular assays by direct measurement of XBP s (B-DNA assay) or by quantification of the luciferase signal in HT1080 XBP1-Luc, which carries a luciferase fusion that is only in frame and expressed from the spliced XBP1 transcript.
Biological activity of Formula I or I′ compounds was measured by an IRE1 biochemical binding assay (Example 901), a biochemical RNase assay (Example 902), a cellular PD assay, XBP1s-LUC reporter (Example 903), and an IRE1α-based inhibition of multiple myeloma (MM) cell proliferation assay.
All of the exemplary Formula I or I′ compounds in Tables 1 and 2 were made and characterized by LCMS [M+H]^+ (liquid chromatography mass spectroscopy) with detection of parent ion. All of the exemplary Formula I compounds in Tables 1 and 2 were prepared according to the procedures of the Schemes, General Procedures, and Examples. All of the exemplary Formula I or I′ compounds in Tables 1 and 2 were tested for binding to IRE1 (inositol requiring enzyme 1 alpha) and biological activity according to the assays and protocols of Example 901-903. Exemplary Formula I or I′ compounds in Tables 1 and 2 have the following structures, corresponding IUPAC names (ChemBioDraw, Version 12.0.2, CambridgeSoft Corp., Cambridge Mass.), and biological activity. Where more than one name is associated with a Formula I or I′ compound or intermediate in Tables 1 and 2 and the Experimental Procedures, the chemical structure shall define the compound. Assignment of configuration at chiral centers in separated stereoisomers may be tentative, and depicted in Tables 1 and 2 structures for illustrative purposes, before stereochemistry is definitively established, such as from x-ray crystallographic data. In some cases, stereoisomers are separated and tested for biological activity before the stereochemistry of the separated stereoisomers is determined; and stereochemistry in some instances was inferred based on structure-activity relationship (SAR) knowledge from previous compounds. In some cases, the compounds are tested as racemic or diastereomeric mixtures. Where more than one potency value is entered on a row, separated stereoisomers represented by the structure and name on that row were tested. Exemplary compounds of Formula I or I′ in Table 3 can be prepared using methods known in the art or according to procedures similar to those described in the Schemes, General Procedures, and Examples 101-500. Biological activities of compounds in Table 3 can be tested in biological assays, for example, those in Examples 901, 902 and 903 described herein.

For the molecule `CCc1cnn(-c2cccc3c(Oc4ncccc4-c4ccnc(N[C@H]5CCCNC5)n4)c(C)ccc23)c1` [Example 290, (S)-4-(2-((5-(4-Ethyl-1H-pyrazol-1-yl)-2-methylnaphthalen-1-yl)oxy)pyridin-3-yl)-N-(piperidin-3-yl)pyrimidin-2-amine], the IC50 – broadly, the concentration needed to halve the response being measured – (Table 1) was 409 nM.
On the same count and under the same terms, the same measure for `CC[C@H]1CCN(c2cccc3c(Oc4ncccc4-c4ccnc(N[C@H]5CCCNC5)n4)c(C)ccc23)C1=O` (single isomer, unassigned) [Example 355]: 365 nM; for `Cc1ccc2c(NC[C@H](O)CF)cccc2c1Oc1ncccc1-c1ccnc(N[C@H]2CCCNC2)n1` (single isomer, unassigned) [Example 333]: 44.6 nM; for `Cc1ccc2c(NC(=O)Cc3ccc(F)cc3)cccc2c1Oc1ncccc1-c1ccnc(N[C@H]2CCCNC2)n1` [Example 199, (S)-2-(4-Fluorophenyl)-N-(6-methyl-5-((3-(2-(piperidin-3-ylamino)pyrimidin-4-yl)pyridin-2-yl)oxy)naphthalen-1-yl)acetamide]: 155 nM.
`CC[C@@H](C)C(=O)Nc1cccc2c(Oc3ncccc3-c3ccnc(N[C@H]4CCCNC4)n3)c(C)ccc12` [Example 204, (R)-2-methyl-N-(6-methyl-5-((3-(2-(((S)-piperidin-3-yl)amino)pyrimidin-4-yl)pyridin-2-yl)oxy)naphthalen-1-yl)butanamide]: the IC50 (Table 1) is 449 nM.
Same read-out and setting: the value for `Cc1ccc2c(N3C(=O)C4CCCC43)cccc2c1Oc1ncccc1-c1ccnc(N[C@H]2CCCNC2)n1` (single isomer, unassigned) [Example 248] was 457 nM; that for `Cc1cc(NS(=O)(=O)C2CCC2)c2ccccc2c1Oc1ncccc1-c1ccnc(N[C@H]2CC[C@H](N)CC2)n1` [Example 111, N-(4-((3-(2-(((trans)-4-Aminocyclohexyl)amino)pyrimidin-4-yl)pyridin-2-yl)oxy)-3-methylnaphthalen-1-yl)cyclobutanesulfonamide hydrochloride] was 447 nM.
Same read-out and setting: the same measure for `Cc1ccc2c(NS(=O)(=O)Cc3ccc(Cl)cc3)cccc2c1Oc1ncccc1-c1ccnc(N[C@H]2CCCNC2)n1` [Example 143, (S)-1-(4-Chlorophenyl)-N-(6-methyl-5-((3-(2-(piperidin-3-ylamino)pyrimidin-4-yl)pyridin-2-yl)oxy)naphthalen-1-yl)methanesulfonamide]: 17 nM; for `Cc1ccc2c(NC(=O)CC(C)(C)C)cccc2c1Oc1ncccc1-c1ccnc(N[C@H]2CCCNC2)n1` [Example 198, (S)-3,3-Dimethyl-N-(6-methyl-5-((3-(2-(piperidin-3-ylamino)pyrimidin-4-yl)pyridin-2-yl)oxy)naphthalen-1-yl)butanamide]: 161 nM; for `Cc1ccc2c(NS(=O)(=O)CC3CC3)cccc2c1Oc1ncccc1-c1ccnc(N[C@H]2CCCNC2)n1` [Example 124, (S)-1-Cyclopropyl-N-(6-methyl-5-((3-(2-(piperidin-3-ylamino)pyrimidin-4-yl)pyridin-2-yl)oxy)naphthalen-1-yl)methanesulfonamide hydrochloride]: 105 nM.
Consider `Cc1ccc2c(NC(=O)C3(CF)CC3)cccc2c1Oc1ncccc1-c1ccnc(N[C@H]2CCCNC2)n1` [Example 242, (S)-1-(Fluoromethyl)-N-(6-methyl-5-((3-(2-(piperidin-3-ylamino)pyrimidin-4-yl)pyridin-2-yl)oxy)naphthalen-1-yl)cyclopropane-1-carboxamide], for which the IC50 (Table 1) worked out at 361 nM.
Same read-out and setting: the value for `Cc1ccc2c(NC(=O)CC3CCCCC3)cccc2c1Oc1ncccc1-c1ccnc(N[C@H]2CCCNC2)n1` [Example 130, (S)-2-Cyclohexyl-N-(6-methyl-5-((3-(2-(piperidin-3-ylamino)pyrimidin-4-yl)pyridin-2-yl)oxy)naphthalen-1-yl)acetamide] was 228 nM.
In the case of `Cc1ccc2c(NS(=O)(=O)N(C)CC(F)(F)F)c(F)ccc2c1Oc1ncccc1-c1ccnc(N[C@H]2CNC[C@H](F)C2)n1` (single isomer, unassigned) [Example 499, hydrochloride], the IC50 (Table 2) was 680 nM.
The same measure, in the same setting: the value for `Cc1ccc2c(NS(=O)(=O)N(C)CCC(F)(F)F)c(F)ccc2c1Oc1ncccc1-c1ccnc(N[C@H]2CCCNC2)n1` [Example 441, 4-[2-[[6-Fluoro-2-methyl-5-[[methyl(3,3,3-trifluoropropyl)sulfamoyl]amino]-1-naphthyl]oxy]-3-pyridyl]-2-[[(3S)-3-piperidyl]amino]pyrimidine hydrochloride] was 48 nM; that for `CO[C@H](C)CS(=O)(=O)Nc1c(F)ccc2c(Oc3ncccc3-c3ccnc(N[C@H]4CCCNC4)n3)c(C)ccc12` (single isomer, unassigned) [Example 394, hydrochloride] was 28 nM.
The same measure, in the same setting: the value for `Cc1ccc2c(NS(=O)(=O)Cc3noc4ccccc34)c(F)ccc2c1Oc1ncccc1-c1ccnc(N[C@H]2CCCNC2)n1` [Example 443, (S)-1-(Benzo[d]isoxazol-3-yl)-N-(2-fluoro-6-methyl-5-((3-(2-(piperidin-3-ylamino)pyrimidin-4-yl)pyridin-2-yl)oxy)naphthalen-1-yl)methanesulfonamide hydrochloride] was 8 nM.
As for `Cc1ccc2c(NC(=O)C3CCCC3(F)F)cccc2c1Oc1ncccc1-c1ccnc(N[C@H]2CCCNC2)n1` (stereo partly drawn) [Example 251, 2,2-Difluoro-N-(6-methyl-5-((3-(2-(((S)-piperidin-3-yl)amino)pyrimidin-4-yl)pyridin-2-yl)oxy)naphthalen-1-yl)cyclopentane-1-carboxamide], the IC50 (Table 1) came to 145 nM.
For the molecule `Cc1ccc2c(NS(=O)(=O)N(C)C3CC3)c(F)ccc2c1Oc1ncccc1-c1ccnc(N[C@H]2CCCNC2)n1` [Example 440, 4-[2-[[5-[[Cyclopropyl(methyl)sulfamoyl]amino]-6-fluoro-2-methyl-1-naphthyl]oxy]-3-pyridyl]-2-[[(3S)-3-piperidyl]amino]pyrimidine hydrochloride], the IC50 (Table 2) came out at 26 nM.
On to `Cc1ccc2c(NCc3ncsc3C)cccc2c1Oc1ncccc1-c1ccnc(N[C@H]2CCCNC2)n1` [Example 346, (S)-4-(2-((2-Methyl-5-(((5-methylthiazol-4-yl)methyl)amino)naphthalen-1-yl)oxy)pyridin-3-yl)-N-(piperidin-3-yl)pyrimidin-2-amine], for which the half-inhibitory concentration (IC50) (Table 1) amounted to 136 nM.
Same read-out and setting: the value for `Cc1ccc2c(NC[C@@H](O)CF)cccc2c1Oc1ncccc1-c1ccnc(N[C@H]2CCCNC2)n1` (single isomer, unassigned) [Example 334] was 89.7 nM.
Still for that read-out and setting: the value for `Cc1ccc2c(NS(=O)(=O)CC3CCCC3)cccc2c1Oc1ncccc1-c1ccnc(N[C@H]2CCCNC2)n1` [Example 128, (S)-1-Cyclopentyl-N-(6-methyl-5-((3-(2-(piperidin-3-ylamino)pyrimidin-4-yl)pyridin-2-yl)oxy)naphthalen-1-yl)methanesulfonamide] was 317 nM; that for `Cc1nc(CNc2cccc3c(Oc4ncccc4-c4ccnc(N[C@@H]5CNC[C@H](C)C5)n4)c(C)ccc23)cs1` [Example 323, 4-(2-((2-Methyl-5-(((2-methylthiazol-4-yl)methyl)amino)naphthalen-1-yl)oxy)pyridin-3-yl)-N-((3S,5R)-5-methylpiperidin-3-yl)pyrimidin-2-amine] was 88.9 nM; that for `Cc1ccc2c(NC(=O)[C@@H]3CC34CC4)c(F)ccc2c1Oc1ncccc1-c1ccnc(N[C@@H]2CNC[C@H](C)C2)n1` (single isomer, unassigned) [Example 389] was 41.7 nM.
